Data on 6 compounds can be found in BindingDB's records for doi:10.1016/j.chembiol.2009.01.006 (Johns Hopkins School of Medicine, 2009).

The structures appear in SMILES notation. Some results are limits rather than exact numbers.

The target of the first experiment is Methionine aminopeptidase 2 (Plasmodium falciparum, UniProt Q8TA23). Description: Enzyme Inhibiton Assay. From the text: (§1) Enzyme affinity assay using Fumarranol analogs with plasmodium falciparum methionine aminopeptidases (PfMetAPs).
Chain of Methionine aminopeptidase 2 (Q8TA23 whole entry): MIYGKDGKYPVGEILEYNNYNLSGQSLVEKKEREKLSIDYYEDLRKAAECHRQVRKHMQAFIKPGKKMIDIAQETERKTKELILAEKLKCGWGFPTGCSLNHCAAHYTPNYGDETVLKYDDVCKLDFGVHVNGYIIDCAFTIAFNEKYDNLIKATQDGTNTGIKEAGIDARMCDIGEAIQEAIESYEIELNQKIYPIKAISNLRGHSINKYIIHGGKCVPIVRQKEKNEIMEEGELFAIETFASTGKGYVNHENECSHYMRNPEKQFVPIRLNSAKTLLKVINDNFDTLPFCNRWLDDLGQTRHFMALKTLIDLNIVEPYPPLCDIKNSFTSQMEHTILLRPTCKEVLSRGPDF
For the compound `CO[C@@H]1[C@H](OC(=O)NC(=O)CCl)CC[C@]2(CO2)[C@H]1[C@@]1(C)O[C@@H]1CC=C(C)C` [(3R,4S,5S,6R)-5-methoxy-4-[(2R,3R)-2-methyl-3-(3-methylbut-2-en-1-yl)oxiran-2-yl]-1-oxaspiro[2.5]octan-6-yl N-(2-chloroacetyl)carbamate], inhibition was half-maximal at 2 µM (IC50).
Compound `CO[C@]12C(=O)CC[C@@]1(CBr)C2[C@@]1(C)O[C@@H]1CC=C(C)C` (some centres not stated) [Fumarranol Analog, 6] registered an IC50 above 500 µM.
On the same count and under the same terms, as for `CO[C@]12C(=O)CC[C@@]1(C=O)C2[C@@]1(C)O[C@@H]1CC=C(C)C` (some centres not stated) [Fumarranol Analog, 7], the figure is above 500 µM; as for `CO[C@]12C(=O)CC[C@@]1(CO)C2/C(C)=C/CC=C(C)C` (some centres not stated) [Fumarranol Analog, 8], above 500 µM; as for `CO[C@]12C(=O)/C(=C/c3ccco3)C[C@@]1(CO)C2[C@@]1(C)O[C@@H]1CC=C(C)C` (some centres not stated) [Fumarranol Analog, 9], above 500 µM.
Consider `CO[C@@]12C([C@@]3(C)O[C@@H]3CC=C(C)C)[C@]1(CO)CC[C@H]2O` (some centres not stated) [Fumarranol Analog, 10], for which the IC50 is above 500 µM.

Another experiment deals with T1, Methionine aminopeptidase (Plasmodium falciparum Santa Lucia, UniProt W7G645).
T1 sequence (W7G645 whole entry): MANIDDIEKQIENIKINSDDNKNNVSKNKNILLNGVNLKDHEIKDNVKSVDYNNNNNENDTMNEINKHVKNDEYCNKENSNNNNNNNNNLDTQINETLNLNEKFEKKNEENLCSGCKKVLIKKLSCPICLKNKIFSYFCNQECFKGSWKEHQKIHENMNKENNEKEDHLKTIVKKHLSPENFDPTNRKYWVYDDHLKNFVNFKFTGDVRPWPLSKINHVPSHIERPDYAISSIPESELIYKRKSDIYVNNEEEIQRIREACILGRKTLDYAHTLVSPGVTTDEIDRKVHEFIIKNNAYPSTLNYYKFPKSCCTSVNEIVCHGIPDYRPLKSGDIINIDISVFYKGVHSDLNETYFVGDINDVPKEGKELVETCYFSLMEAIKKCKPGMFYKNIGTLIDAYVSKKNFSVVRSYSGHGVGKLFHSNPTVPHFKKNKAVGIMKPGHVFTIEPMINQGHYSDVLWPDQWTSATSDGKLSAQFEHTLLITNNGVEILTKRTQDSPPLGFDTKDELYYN
Description: Enzyme Inhibiton Assay.
Excerpt: as §1
`CO[C@@H]1[C@H](OC(=O)NC(=O)CCl)CC[C@]2(CO2)[C@H]1[C@@]1(C)O[C@@H]1CC=C(C)C` [(3R,4S,5S,6R)-5-methoxy-4-[(2R,3R)-2-methyl-3-(3-methylbut-2-en-1-yl)oxiran-2-yl]-1-oxaspiro[2.5]octan-6-yl N-(2-chloroacetyl)carbamate]: the IC50 is above 300 µM.
